Tests used:
[1] = tested on: MT bundling in QBI-293 cells; assay: MT bundling in tau-transfected QBI-293 cells (immunofluorescence); assay type: cell-based; details: ten fields/transfection
Description: FIG. 2, comprising FIG. 2A through FIG. 2K, depicts the results of experiments which illustrate that tau acetylation in cells inhibits tau-mediated MT stabilization. FIG. 2A depicts the results of an experiment where Doxycycline (Dox)-treated HEK-T40 cells were cultured in the presence of either trichostatin A (TSA), nicotinamide (NCA) or both and pulse labelled with [^3H]-acetate for 2 h. Tau was immunoprecipitated, treated with λ-phosphatase where indicated, and analyzed by SDS-PAGE followed by autoradiography and exposure to film for 2 weeks. Total cellular lysates were analyzed by immunoblotting using anti-tau (T14/T46), PHF-1 and GAPDH antibodies. FIG. 2B illustrates the results of an experiment where cells transfected with CBP were treated with TSA and acetylated tau levels were determined by immunoprecipitation/immunoblot analysis using anti-acetylated lysine antibody. Cellular lysates were immunoblotted using T14/46, PHF-1, AT8 and GAPDH antibodies. FIG. 2C depicts the results of an experiment where cells were transfected with CBP and either wild-type (WT) HDAC6 or the catalytically dead (CD) HDAC6-H611A mutant and tau acetylation was determined by immunoblotting similar to FIG. 2B above. FIG. 2D depicts the results of an experiment where QBI-293 cells were transfected with WT T40, 2KR (K280/281R), 3KR (K163/280/281R) or 4KR (K163/280/281/369R) mutant T40 and cell lysates were immunoblotted using anti-acetyl-lysine and total tau (T14/T46) antibodies. FIG. 2E through FIG. 2G are images illustrating the results of an experiment where QBI-293 cells were transfected with WT T40 (FIG. 2E) and total MT bundling was determined by immunofluorescence using anti-acetylated tubulin antibodies as shown for WT (FIG. 2F). Merged images indicate stabilized microtubules as shown for WT (FIG. 2G). FIG. 2H through FIG. 2J are images illustrating the results of an experiment where QBI-293 cells were transfected with 4KQ (K163/280/281/369Q) (FIG. 2H) and MT bundling was determined by immunofluorescence using anti-acetylated tubulin antibodies as shown for 4KQ (FIG. 2I) and merged images (FIG. 2J). Representative images are shown from n=4 independent experiments. Note, WT tau (FIG. 2E-FIG. 2G), but not 4KQ (FIG. 2H-FIG. 2J), promotes robust MT bundling. Scale bar, […]. FIG. 2K is a graph illustrating the results of an experiment where QBI-293 cells were transfected with WT T40, K280Q, 4KQ (K163/280/281/369Q) or 4KR mutant plasmids and MT bundling was determined from tau-expressing cells by quantification of ten fields/transfection and values are represented as % MT bundling from tau-expressing cells. Error bars indicate standard error of the mean. *P value=0.006, ***P value=8.46×10^−6 as determined by Student's t-test. […]

[2] = biological target: T1, tau-K18 acetyltransferase activity (Homo sapiens, UniProt P10636); assay: Tau auto-acetylation filter binding assay, cofactor inhibition analysis; assay type: biochemical; details: 25 μM tau, 450 μM [3H]-acetyl-CoA; for IC50: 1 hr at 37° C., read-out: IC50 for inhibition of acetyl-CoA-dependent tau-K18 acetyltransferase activity
T1 construct: made in house
T1 sequence (P10636 561-685 limits assumed): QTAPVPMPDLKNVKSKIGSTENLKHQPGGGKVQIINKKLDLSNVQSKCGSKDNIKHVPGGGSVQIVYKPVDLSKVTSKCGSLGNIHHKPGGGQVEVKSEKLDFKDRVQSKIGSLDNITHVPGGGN
Description: Reactions were assembled in 50 μl of reaction buffer containing 50 mM Tris pH 8.0, 100 μM EDTA, and 10% glycerol. Unless specifically noted, reactions contained 25 μM of either WT tau-K18 or tau-K18-2CA mutant. The reactions were initiated by the addition of [^3H]-acetyl-CoA (2.35 Ci mmol^−1, Perkin Elmer) at concentrations ranging from 2.5 μM to 1 mM, incubated at 37° C., and allowed to proceed for 1 hr (unless otherwise noted). Reactions were stopped by the addition of 10 μl of 3 mM CoA, and 25 μl of the reaction was then spotted to a P81 filter paper (Whatman), washed in 10 mM HEPES pH 7.5 three times, and dried using acetone. Incorporated [^3H]-acetyl-CoA was then measured using the Perkin Elmer Tri-Carb 2800TR Liquid Scintillation Analyzer, and the molar amount of acetyl groups incorporated into tau were calculated from a standard curve of the radiolabeled acetyl-CoA.
Reactions were performed in the buffer described above and at 25 μM tau. Reactions included between 1 and 4000 μM of the inhibitors: CoA, acetonyl-CoA, or pantothenic acid. All reactions were initiated by the addition of 450 μM [^3H]-acetyl-CoA (2.35 Ci mmol^−1, Perkin Elmer), incubated for 1 hr at 37° C., and stopped by spotting 25 μl of the reaction to the P81 filter paper. Radiolabeled incorporation was measured as stated above. All data were analyzed using GraphPad Prism to determine kinetic parameters and IC50 values.

[3] = tested on: acetylated tau in HEK-T40 cells; assay: Tau acetylation in HEK-T40 cells ([3H]-acetate labelling / immunoprecipitation); assay type: cell-based, human
Description: FIG. 2, comprising FIG. 2A through FIG. 2K, depicts the results of experiments which illustrate that tau acetylation in cells inhibits tau-mediated MT stabilization. FIG. 2A depicts the results of an experiment where Doxycycline (Dox)-treated HEK-T40 cells were cultured in the presence of either trichostatin A (TSA), nicotinamide (NCA) or both and pulse labelled with [^3H]-acetate for 2 h. Tau was immunoprecipitated, treated with λ-phosphatase where indicated, and analyzed by SDS-PAGE followed by autoradiography and exposure to film for 2 weeks. Total cellular lysates were analyzed by immunoblotting using anti-tau (T14/T46), PHF-1 and GAPDH antibodies. FIG. 2B illustrates the results of an experiment where cells transfected with CBP were treated with TSA and acetylated tau levels were determined by immunoprecipitation/immunoblot analysis using anti-acetylated lysine antibody. […] FIG. 2C depicts the results of an experiment where cells were transfected with CBP and either wild-type (WT) HDAC6 or the catalytically dead (CD) HDAC6-H611A mutant and tau acetylation was determined by immunoblotting similar to FIG. 2B above. […] FIG. 2E through FIG. 2G are images illustrating the results of an experiment where QBI-293 cells were transfected with WT T40 (FIG. 2E) and total MT bundling was determined by immunofluorescence using anti-acetylated tubulin antibodies as shown for WT (FIG. 2F). […]

[4] = tested on: histones and microtubules; details: substrate as listed (H4-21, H3p19, H3, microtubules); cited from earlier work
[5] = tested on: auto-acetylated substrate; details: auto-acetylation, cited from earlier work; for Km: read-out: Km AcCoA [auto]
[6] = Heparin-induced tau fibrillization assay quantified by Thioflavin-T binding; assay type: biochemical; details: 10 μM tau proteins, 10 μM heparin, 4-h incubation
Description: (§1) Recombinant full-length T40, 4R-tau MT-binding domain K18, or tau fibrils were acetylated by incubation with [^14C]-labeled acetyl-CoA in the presence or absence of CBP. FIG. 1A illustrates that the reaction products were analyzed by SDS-PAGE and Coomassie blue staining followed by overnight radiographic exposure using STORM phosphor-imager software. FIG. 1B depicts the results of an experiment where T40 or K18 proteins were incubated with acetyl-CoA and/or recombinant CBP and reaction products were subjected to immunoblot analysis using a polyclonal anti-tau-specific antibody for MT repeat domain (E10) and an anti-acetyl-lysine antibody. FIG. 1C is a graph depicting the MT assembly activities of K18 proteins as evaluated in light-scattering assays. Tubulin monomers (30 μM) were mixed with 40 μM tau proteins in MT assembly buffer supplemented with 2 mM guanosine triphosphate. MT assembly was determined by monitoring absorbance every minute at 350 nm using a SpectraMax plate reader. […] FIG. 1D is a graph illustrating the results of experiments where Tau proteins (10 μM) were evaluated in fibrillization reactions using 10 μM heparin to induce assembly. […] Samples were analysed by SDS-PAGE and Coomassie staining to monitor fibril formation. FIG. 1F illustrates the results of experiments where four-hour time points from fibrillization reactions were analysed by negative-staining EM. […]
Tau K18 protein was either mock acetylated or acetylated in vitro using acetyl-CoA substrate as indicated elsewhere herein. […] Protein concentrations were determined using the bicinchoninic acid protein assay (Pierce) with bovine serum albumin as the standard. Acetylated K18 and mock-treated K18 were assessed by a light-scattering assay as described elsewhere herein. […] The extent of fibrillization was assessed at different time points by ThT fluorescence assay, sedimentation analysis and negative staining EM as described elsewhere herein. For ThT fluorescence assay, ThT diluted in 100 mM glycine buffer (pH 8.5) was added and fluorometric readings were taken at 450 nm (excitation) and 510 nm (emission). […]

tubulin = assay: MT assembly light-scattering assay; assay type: biochemical; details: 30 μM tubulin, 40 μM tau proteins, 2 mM GTP
Description: as §1

Question: Which “% MT bundling from tau-expressing cells” value [1] does the source give for “4KQ: tau acetylation mimetic K163/280/281/369Q” here?
Answer: The value was roughly 7%.

Question: With “4KR: tau non-mimetic mutant K163/280/281/369R” as the molecule, how does the “% MT bundling from tau-expressing cells” value [1] read?
Answer: The value was roughly 50%.

Question: For `CC(C)(COP(=O)(O)OP(=O)(O)OC[C@H]1O[C@@H](n2cnc3c(N)ncnc32)[C@H](O)[C@@H]1OP(=O)(O)O)[C@@H](O)C(=O)NCCC(=O)NCCS` [CoA], which IC50 [2] is on record?
Answer: Its IC50 is 59 µM.

Question: For `CC(=O)CSCCNC(=O)CCNC(=O)[C@H](O)C(C)(C)COP(=O)(O)OP(=O)(O)OC[C@H]1O[C@@H](n2cnc3c(N)ncnc32)[C@H](O)[C@@H]1OP(=O)(O)O` [acetonyl-CoA], which IC50 [2] is on record?
Answer: The IC50 was 668 µM.

Question: For `CC(C)(CO)[C@@H](O)C(=O)NCCC(=O)O` [pantothenic acid], which “inhibition of tau activity (cofactor competition)” value ([2]; between 1 and 4000 μM inhibitor) is on record?
Answer: Its value is “did not show significant inhibition”.

Question: For `CC(/C=C/C(=O)NO)=C\[C@@H](C)C(=O)c1ccc(N(C)C)cc1` [trichostatin A], which acetylated tau levels ([3]; HEK-T40 cells pulse labelled with [3H]-acetate for 2 h) is on record?
Answer: The acetylated tau levels was “dramatic increase in acetylated tau levels”.

Question: What about the “acetylated tau (anti-acetyl-lysine)” value ([3]; HEK-T40 cells transiently transfected with CBP) of the same molecule?
Answer: The value was “dramatic accumulation of acetylated tau”.

Question: What does the source list for “ESA1: MYST-family acetyltransferase, literature kinetics”?
Answer: Kcat [4]: 0.122 s⁻¹; Km [5]: 9.4 µM

Question: For “K18-K311D: K18 containing the K311D mutation, negative control”, which “fibrillization (ThT)” value [6] is on record?
Answer: The value was “did not fibrillize”.

Question: With “K280Q: single K280Q acetylation mimetic of T40 tau” as the molecule, how does the “% MT bundling from tau-expressing cells” value [1] read?
Answer: The value was roughly 40%.

Question: Which results are given for “Rtt109 + Vps75: acetyltransferase listed for literature kinetics comparison”?
Answer: Kcat [4]: 0.375 s⁻¹; Kcat [auto] [5]: 0.002 s⁻¹; Km [5]: 912 µM

Question: For “WT tau: wild-type longest human tau isoform (T40) expressed in cells”, which “% MT bundling from tau-expressing cells” value [1] is on record?
Answer: The value was roughly 55%.

Question: With “acetylated K18: tau K18 protein acetylated in vitro using acetyl-CoA and CBP” as the molecule, how does the “MT assembly (absorbance at 350 nm)” value (tubulin) read?
Answer: Its value is “failed to promote MT assembly”.

Question: What about the “fibrillization (ThT)” value [6] of the same molecule?
Answer: Its value is “fibrillized rapidly by 3 h”.

Question: For “p300: nuclear acetyltransferase, literature kinetics”, which Kcat [4] is on record?
Answer: The Kcat was 0.46 s⁻¹.

Question: And the Km [5]?
Answer: Its Km is 3310 µM.
